# Entries after “also recorded” stand apart in the source; their conditions may differ.
# Tests used:
# [1] = test system: cerulein-induced pancreatitis; assay: Stringent chronic pancreatitis model: cerulein 6 hourly IP injections twice per week for 8 weeks, WA from week 5; type: in vivo, C57BL/6 mice; details: for Histopathology (H&E, Sirius red): pancreas damage, acinar cell atrophy, mononuclear cell infiltration, fibrosis: stringent model, cerulein (50 ug/kg) + Withaferin vs cerulein only, FIGS. 3C, 3F, six animals per group
# Procedure: (§1) C57BL/6 mice were injected with 7 hourly IP injections of cerulein at […] once per week for 4 weeks in a standard model for chronic pancreatitis or 6 hourly IP injections of cerulein at […] twice per week for 8 weeks in a stringent model for chronic pancreatitis. WA was administered one hour prior to cerulein beginning in week 1 in the standard model and beginning in week 5 in the stringent model of chronic pancreatits. Incidence of pancreatitis was confirmed by histopathological analysis of pancreas tissue, serum amylase levels, and neutrophil infiltration into pancreatic tissue. Cell proliferation was assessed by Ki67 staining. Pancreatic stone protein REG1α was analyzed by immunohistochemical staining. ImageJ software was used to quantify the area of positively stained cells.
# (§2) Chronic pancreatitis (CP) model: Animals were subjected to repeated episodes of acute pancreatitis by supramaximal dose (50 ug/kg) of cerulein administration. Standard Chronic pancreatitis: Mice were fasted overnight prior cerulein injection with ad-libitum supply of water. CP was induced when cerulein was injected i.p. (50 ug/kg) every hour for a total of 7 injection, this injection was repeated once a week for 4 weeks. Control mice were injected with saline as sham treatment. Another group of mice received WA (1.25 mg/kg) 1 hr before the first cerulein injection every week (n=6 mice/group). Mice were then sacrificed and blood and tissue were processed as previously mentioned. Stringent chronic pancreatitis: Mice were fasted overnight prior cerulein injection with ad-libitum supply of water. CP was induced when cerulein was injected i.p. (50 ug/kg) every hour for a total of 6 injection, this injection was repeated twice a week for 8 weeks. WA (0.625 mg/kg) was injected 1 hr prior to first cerulein injection but administration was initiated at week 5 and continued till the end of the experiment. Mice were then sacrificed and tissue was harvested as previously mentioned.
# (§3) Histology and Immunohistochemistry: Pancreas tissue was placed in 10% formalin immediately after harvesting and fixed for at least 48 hrs at 4° C. before processing. Tissue samples were paraffin embedded and 5 um sections were made and mounted on slides for staining. Hematoxylin and Eosin (H&E) staining was performed for histopathological evaluation. Sirius Red Staining was performed as per manufacturer's protocol on the sections to evaluate fibrotic change in the tissue section. To perform immunohistochemical staining, the sections were deparaffinized in xylene and rehydrated using ethanol. The slides were incubated in a citrate buffer of pH 6 with at 97° C. for 20 minutes. Following the antigen retrieval process, the slides were carefully washed 3 times for 5 minutes in Tris-buffered saline (TBS) containing 0.025% Triton X-100. The slides were blocked in 1% bovine serum albumin (BSA) in TBS for 2 hours at room temperature to block non-specific binding of the antibodies. Then the slides were incubated overnight with primary antibodies which were diluted in TBS with 1% BSA. The following day, the slides were gently rinsed 3 times for 5 minutes in TBS 0.025% Triton X-100. TRITC or FITC labelled secondary antibodies from Invitrogen were diluted in TBS with 1% BSA. The slides were counterstained with DAPI and mounted for microscopic analysis. ImageJ software was used to perform semi-quantitative analysis of the staining.
# qRT-PCR: Pancreas tissue samples were stored in RNAlater at −80° C. until extraction procedure. Total RNA from the pancreas tissue were extracted using TRIzol reagent. Tissue was homogenized and debris was removed by centrifugation. Chloroform was added to separate the RNA from other biomolecules, and further precipitated using iso-propanol. RNA pellet was washed with ethanol and quantified using nanodrop 2000. cDNA synthesis was performed using high capacity cDNA reverse transcription kit as per manufacturer's protocol. […]
# [2] = test system: cerulein induced acute pancreatitis; assay: Acute pancreatitis model: cerulein 7 hourly IP injections, WA one hour prior; type: in vivo, C57BL/6 mice; details: WA 1.25 mg/kg, n=5/group
# Procedure: Acute pancreatitis (AP) model: Animals were fasted overnight prior to induction of pancreatitis by cerulein, water was given ad-libitum. Mice were injected with Cerulein (50 ug/kg intraperitoneally) or saline every hour for a total of 7 injections and were sacrificed 1 hr after the last injection. WA (1.25 mg/kg) was administered 1 hr before first cerulein injection (n=5 mice/group). […] Pancreas was divided for immunohistochemistry, RNA extraction, protein extraction, immune cell infiltration analysis. Amylase activity assay: Serum samples obtained from mice after treatment were aliquoted and stored at −80 C until further analysis. Serum was analyzed for amylase activity as per the manufacturer's protocol. Immune cell infiltration assay: Cell suspension was prepared from the pancreas tissue after digestion with collagenase (2 mg/mL) at 37° C. for 15 mins. Tissue was further mechanically digested by pipetting several times, the suspension was then washed and filtered to obtain only the single cell fraction. Cell suspension obtained was used for flow cytometric analysis of infiltrated immune cells. 1×10^6 pancreatic cells were labelled with anti-CD45, anti-CD11b, anti-CD14, and anti-Ly6g antibodies. Stained cells were detected using FACScanto II and data were analyzed using FlowJo software. To model acute pancreatitis, C57BL/6 mice were injected with 7 hourly IP injections of cerulein at 50 μg/kg. WA (1.25 mg/kg) was administered one hour prior to cerulein. […] Inflammatory cell infiltration was increased in cerulein-treated mice (FIGS. 18B, 18E, and 18H) compared to controls (FIGS. 18A, 18D, and 18G), but were reduced in cerulein and WA-treated mice (FIGS. 18C, 18F, and 18I) compared to cerulein-treated mice.
# [3] = test system: cerulein-induced pancreatitis; assay: Standard chronic pancreatitis model: cerulein 7 hourly IP injections once per week for 4 weeks, WA one hour prior; type: in vivo, C57BL/6 mice; details: WA (1 mg/kg) without cerulein; FIG. 2B
# NF-κB p65 = NF-κB p65 immunohistochemical staining and protein blot of pancreas of cerulein treated mice; type: in vivo, mouse; details: WA + cerulein vs cerulein treated mice
# Procedure: as §3, with “The slides were counterstained with DAPI and mounted for microscopic analysis.” left out
# [4] = test system: cerulein-induced pancreatitis; assay: Standard chronic pancreatitis model: cerulein 7 hourly IP injections once per week for 4 weeks, WA one hour prior; type: in vivo, C57BL/6 mice
# Procedure: as §1, §2
# Amylase activity assay: Serum samples obtained from mice after treatment were aliquoted and stored at −80 C until further analysis. Serum was analyzed for amylase activity as per the manufacturer's protocol.
# as §3
# qRT-PCR: Pancreas tissue samples were stored in RNAlater at −80° C. until extraction procedure. Total RNA from the pancreas tissue were extracted using TRIzol reagent. Tissue was homogenized and debris was removed by centrifugation. Chloroform was added to separate the RNA from other biomolecules, and further precipitated using iso-propanol. […]
structure (smiles),measurement,setting,value
"CC1=C(CO)C(=O)O[C@@H]([C@@H](C)[C@H]2CC[C@H]3[C@@H]4C[C@H]5O[C@]56[C@@H](O)C=CC(=O)[C@]6(C)[C@H]4CC[C@]23C)C1 [WA, (4β,5β,6β,22R)-5,6-Epoxy-4,22,27-trihydroxy-1-oxoergosta-2,24-dien-26-oic acid 6-lactone]","Ki67+ area in pancreas (ImageJ, semi-quantitative)","[1]; Stringent CP Model, FIG. 9B, n=5/group",significantly lower Ki67+ area
same,Inflammasome gene expression in pancreas (qRT-PCR),"[1]; stringent CP model, HMGB1, NLRP3, IL-1b, FIG. 14, n=4/group",decreased; also recorded: significantly reduced inflammasome related genes
same,Pro-inflammatory and pro-apoptotic gene expression in pancreas (qRT-PCR),"[1]; stringent CP model, IL-6, TNFα, Nos2, Bax, FIG. 16, n=4/group",decreased; also recorded: significantly reduced most of these gene signals
same,ER stress gene expression in pancreas (qRT-PCR),"[1]; stringent CP model, Perk, Ern1, Atf6, Chop, xbp1, eif2a, Atf4, FIG. 12, n=4/group",decreased; also recorded: significantly reduced ER stress gene signals
same,IL-6 in pancreas tissue lysate (Luminex),"[1]; stringent chronic pancreatitis, FIG. 6A, n=4/group",effectively blocked production
same,MCP-1 in pancreas tissue lysate (Luminex),"[1]; stringent chronic pancreatitis, FIG. 6B, n=4/group",effectively blocked production
same,"Histopathology (H&E, Sirius red): pancreas damage, acinar cell atrophy, mononuclear cell infiltration, fibrosis",[1],significantly reduced acinar cell atrophy and infiltration of mononuclear cells
same,"Histopathology (H&E, Sirius red): pancreas damage, acinar cell atrophy, mononuclear cell infiltration, fibrosis",[1]; listed as Withaferin,significantly reduced pancreas damage and fibrosis
same,Inflammatory cell infiltration into pancreas (flow cytometry),"[2]; CD45+CD11b+ myeloid cells, CD45+Ly6g+ granulocytes, CD45+CD14+ monocytes, FIG. 18",reduced percentage of infiltrating cells
same,Leucocyte (CD45+) infiltration into pancreas (flow cytometry),[2]; FIG. 19G-J,reduced percentage of infiltrating cells
same,Serum amylase compared to cerulein treated mice,"[2]; serum one hour after last cerulein injection, FIG. 17",significantly decreased; also recorded: significantly reduced serum amylase
same,"Histopathology (H&E) of pancreas, WA alone",[3],normal phenotype
same,NF-κB p65 translocation into the nucleus (immunohistochemical staining of pancreatic tissue),NF-κB p65; FIG. 10C,significantly prevented NF-κB translocation into the nucleus
same,NF-κB P65 protein expression in pancreatic lysate (protein blot),NF-κB p65; FIG. 10D,significantly inhibited overexpression
same,"Ki67+ area in pancreas (ImageJ, semi-quantitative)","[4]; Standard CP model, FIG. 9A, n=5/group",significantly lower Ki67+ area
same,"Histopathology (H&E): acinar cell atrophy, mononuclear cell infiltration, severity of chronic pancreatitis","[4]; WA + cerulein (50 ug/kg) vs cerulein only, FIG. 2D, six animals per group",significantly reduced acinar cell atrophy and infiltration of mononuclear cells; also recorded: significantly reduced severity of chronic pancreatitis
same,Serum amylase levels,"[4]; WA + cerulein treated mice, cerulein only 952.8±228.8, p=0.045, FIG. 4",696.3 ± 98.6 nmol/min/mL
same,Neutrophils migrated into pancreas,"[4]; WA treated mice, cerulein only 3,742±1,188, p=0.03, FIGS. 7F, 7G, standard or stringent CP model not stated",719±276 cells per objective field at a magnification of ×200
same,REG1α immunohistochemical staining of pancreas,"[4]; WA treatment, cerulein only 3,779±448, p=0.003, brought to control levels, model not stated",544±43
same,Ki67+ cells in the pancreas,"[4]; WA+cerulein, cerulein only 20.0±16.0, FIG. 8, 9A-B (percentage of Ki67+ cells, ImageJ), model not stated",3.8±2.9
same,Ly6g+ granulocyte infiltration of pancreas (immunohistochemical staining),"[4]; cerulein + WA vs cerulein, FIG. 7F, n=5/group, model not stated",significantly reduced inflammatory cell infiltration
same,Serum amylase level compared to cerulein treated mice,"[4]; serum at week 3 and week 4, one hour after last injection, FIG. 4, n=6/group",significantly lower serum amylase level
same,Inflammasome gene expression in pancreas (qRT-PCR),"[4]; standard CP model, HMGB1, Pycard, NLRP3, IL-18, IL-1b, FIG. 13, n=4/group",decreased; also recorded: significantly reduced inflammasome related genes
same,Pro-inflammatory and pro-apoptotic gene expression in pancreas (qRT-PCR),"[4]; standard CP model, IL-6, TNFα, Nos2, Casp3, Casp7, Bax, FIG. 15, n=4/group",decreased; also recorded: significantly reduced most of these gene signals
same,ER stress gene expression in pancreas (qRT-PCR),"[4]; standard CP model, Perk, Atf6, Ern1, Eif2a, Atf4, xbp1, Chop, FIG. 11, n=4/group",decreased; also recorded: significantly reduced ER stress gene signals
same,IL-6 in pancreas tissue lysate (Luminex),"[4]; standard chronic pancreatitis, FIG. 5A, n=4/group",effectively blocked production
same,MCP-1 in pancreas tissue lysate (Luminex),"[4]; standard chronic pancreatitis, FIG. 5B, n=4/group",effectively blocked production

# Reference: patent US10758551B2, “Methods and compositions for treating pancreatitis” (BAYLOR RESEARCH INSTITUTE, priority 2015, dated 2020)
